Some test systems named below: DLD-1 colon; HOP-62 NSCLC; NCI-H522 lung; SF-268 CNS; EKVX NSCLC; LXFL 529 NSCLC; OVCAR-5 ovarian; RPMI-8226 leukemia; M19-MEL melanoma; M14 melanoma; DMS 114 small cell lung; MDA-MB-231 breast.
Common to all, as to assay: DTP human tumour cell line panel, 48 h

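Five compound concentrations were applied to cells in 96-well plates for 48 hours; endpoints were derived by simple linear interpolation of the resulting dose-response curve. The concentration for full growth arrest is given as TGI.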

One may read the TGI as the concentration giving total growth inhibition.

As to `Cc1cc2c(c(C(N)=O)c1C)-c1cccc(F)c1C2=O`, the TGI in the experiment with DLD-1 colon, with HOP-62 NSCLC, with NCI-H522 lung, in the experiment on SF-268 CNS, in the experiment on EKVX NSCLC and with LXFL 529 NSCLC was more than 100 µM in each case. For the same compound, the total growth inhibition concentration (TGI) with OVCAR-5 ovarian, with RPMI-8226 leukemia, in the experiment with M19-MEL melanoma, in the experiment with M14 melanoma and with DMS 114 small cell lung was more than 100 µM in each case.
Take `CCO/C=C1\N=C(c2ccc(Cl)c(Cl)c2)OC1=O`: the TGI in the experiment on DLD-1 colon, with HOP-62 NSCLC, with NCI-H522 lung, in the experiment with SF-268 CNS, with EKVX NSCLC and with LXFL 529 NSCLC was more than 100 µM in each case. Besides, the TGI with OVCAR-5 ovarian, in the experiment on RPMI-8226 leukemia, in the experiment with M19-MEL melanoma, with M14 melanoma and in the experiment on DMS 114 small cell lung was more than 100 µM throughout.
Turning to `O=C1C2C(C(=O)N1c1ccccc1)C1c3ccccc3C2C2C(=O)N(c3ccccc3)C(=O)C21` (configuration not stated), the TGI was 8.92 µM in the experiment on DLD-1 colon; 8.07 µM in the experiment with NCI-H522 lung; more than 100 µM in the experiment with SF-268 CNS; more than 100 µM in the experiment with EKVX NSCLC; more than 100 µM in the experiment on LXFL 529 NSCLC; 99.5 µM in the experiment with OVCAR-5 ovarian. For the same compound, the TGI was more than 100 µM with RPMI-8226 leukemia, more than 100 µM with M19-MEL melanoma, more than 100 µM in the experiment on M14 melanoma and 27 µM in the experiment on DMS 114 small cell lung.
For the compound `COC(=O)CCC(NC(=S)N/N=C(\C)c1ccc[nH]1)C(=O)OC` (configuration not stated), the TGI with DLD-1 colon, in the experiment with HOP-62 NSCLC, in the experiment on NCI-H522 lung, in the experiment with SF-268 CNS, in the experiment on EKVX NSCLC and in the experiment with LXFL 529 NSCLC was more than 100 µM throughout. The TGI in the experiment with OVCAR-5 ovarian, in the experiment with M19-MEL melanoma, in the experiment on M14 melanoma and in the experiment on DMS 114 small cell lung was more than 100 µM in each case.
With `CC(C)C1CO[C@]2(C)CCC(=O)N12` (some centres not stated), the TGI in the experiment with DLD-1 colon, with HOP-62 NSCLC, with NCI-H522 lung, in the experiment on SF-268 CNS, in the experiment with EKVX NSCLC and in the experiment with LXFL 529 NSCLC was more than 100 µM throughout. In addition, the TGI in the experiment with RPMI-8226 leukemia, in the experiment with M19-MEL melanoma, in the experiment on M14 melanoma and with DMS 114 small cell lung was more than 100 µM in each case.
For `N#C/C(=C1\SCC(=O)N1c1ccccc1)c1nc2ccccc2[nH]1`, the TGI in the experiment with DLD-1 colon, with HOP-62 NSCLC, with NCI-H522 lung, with SF-268 CNS, in the experiment with EKVX NSCLC and with LXFL 529 NSCLC was more than 100 µM throughout. Moreover, the TGI in the experiment on OVCAR-5 ovarian, in the experiment with M19-MEL melanoma, in the experiment with M14 melanoma and in the experiment with DMS 114 small cell lung was more than 100 µM throughout.
For `O=c1cc(-c2ccccn2)[nH]c2cccc(F)c12`, the TGI with DLD-1 colon, with HOP-62 NSCLC, in the experiment with NCI-H522 lung, with EKVX NSCLC, with LXFL 529 NSCLC and in the experiment on OVCAR-5 ovarian was more than 100 µM in each case. The TGI in the experiment on RPMI-8226 leukemia, in the experiment on M19-MEL melanoma, in the experiment with M14 melanoma and with DMS 114 small cell lung was more than 100 µM in each case.
Consider `COc1cc(CNc2nc3c(N)cc(C(F)(F)F)cc3nc2-c2ccccc2)cc(OC)c1OC`, for which the TGI with DLD-1 colon was more than 100 µM; in the experiment with HOP-62 NSCLC, more than 100 µM; in the experiment with NCI-H522 lung, 78.5 µM; in the experiment on SF-268 CNS it was more than 100 µM; in the experiment with EKVX NSCLC, 25.6 µM; in the experiment on LXFL 529 NSCLC, more than 100 µM. The TGI in the experiment on OVCAR-5 ovarian, in the experiment with RPMI-8226 leukemia, in the experiment with M19-MEL melanoma, in the experiment with M14 melanoma and with DMS 114 small cell lung was more than 100 µM in each case.
As for `COc1cc(/C=C/c2ccc(C)cc2)cc(OC)c1OC`, the TGI in the experiment on DLD-1 colon was 20.7 µM; with HOP-62 NSCLC it was 16.3 µM; in the experiment with NCI-H522 lung it was 5.7 µM; in the experiment on SF-268 CNS, 11.2 µM; with EKVX NSCLC, more than 100 µM; with LXFL 529 NSCLC, more than 48.8 µM. Also, the TGI in the experiment on MDA-MB-231 breast was more than 100 µM; with OVCAR-5 ovarian it was 21.9 µM; in the experiment with RPMI-8226 leukemia it was 43.7 µM; in the experiment with M19-MEL melanoma it was more than 88.9 µM; in the experiment on M14 melanoma, 15.3 µM; with DMS 114 small cell lung, more than 100 µM.
`C/C(CC(=O)NCCc1ccccc1)=N\NS(=O)(=O)c1ccc(C)cc1`: the TGI with DLD-1 colon, in the experiment with HOP-62 NSCLC, with NCI-H522 lung, in the experiment with SF-268 CNS, with EKVX NSCLC and in the experiment on LXFL 529 NSCLC was more than 100 µM each time. Besides, the TGI in the experiment with OVCAR-5 ovarian, in the experiment with RPMI-8226 leukemia, in the experiment with M19-MEL melanoma, with M14 melanoma and in the experiment on DMS 114 small cell lung was more than 100 µM each time.
As for `ClC(Cl)=C(Cl)C1(Cl)CC1COCc1ccccc1` (configuration not stated), the TGI with DLD-1 colon was more than 100 µM; with HOP-62 NSCLC it was 79.3 µM; in the experiment on NCI-H522 lung, 44.2 µM; in the experiment with SF-268 CNS it was more than 100 µM; with EKVX NSCLC, more than 100 µM; in the experiment on LXFL 529 NSCLC it was more than 100 µM. The TGI was more than 100 µM with OVCAR-5 ovarian; 44.2 µM with RPMI-8226 leukemia; 73.6 µM with M19-MEL melanoma; more than 100 µM in the experiment with M14 melanoma; 59.6 µM in the experiment on DMS 114 small cell lung.
In the case of `C[N+]1=c2c3cccc4cccc(c(=O)n2CC1)c43`, the TGI with DLD-1 colon worked out at 44 µM; in the experiment on HOP-62 NSCLC, 53.1 µM; with NCI-H522 lung, 24.4 µM; in the experiment with SF-268 CNS, 35.1 µM; in the experiment with EKVX NSCLC, 87.5 µM; in the experiment on LXFL 529 NSCLC it was 42.4 µM. For the same compound, the TGI amounted to 33.5 µM in the experiment with OVCAR-5 ovarian; 93.1 µM in the experiment with RPMI-8226 leukemia; 31.6 µM in the experiment on M19-MEL melanoma; 28.7 µM in the experiment on M14 melanoma; 29.2 µM with DMS 114 small cell lung.
In the case of `COc1cc2c(cc1OC)C(C(=O)O)C(c1ccccc1)N(C)C2=O` (configuration not stated), the TGI with DLD-1 colon, in the experiment with HOP-62 NSCLC, in the experiment on NCI-H522 lung, with SF-268 CNS, with EKVX NSCLC and in the experiment with LXFL 529 NSCLC was more than 100 µM each time. The TGI with OVCAR-5 ovarian, in the experiment with RPMI-8226 leukemia, with M19-MEL melanoma, with M14 melanoma and in the experiment with DMS 114 small cell lung was more than 100 µM in each case.
Take `C#CC1(O)CCC2C3CCc4cc(Oc5nc(F)nc(-c6c7ccccc7c7n6CCS7)n5)ccc4C3CC[C@@]21C` (some centres not stated): the TGI in the experiment on DLD-1 colon is more than 100 µM; with HOP-62 NSCLC it was 36.1 µM; with NCI-H522 lung, 20.9 µM; in the experiment on SF-268 CNS, more than 100 µM; with LXFL 529 NSCLC, 57.3 µM; in the experiment with OVCAR-5 ovarian, more than 100 µM. Besides, the TGI was 57.5 µM in the experiment on RPMI-8226 leukemia, more than 100 µM in the experiment with M19-MEL melanoma, 40.5 µM in the experiment on M14 melanoma and 44.7 µM in the experiment with DMS 114 small cell lung.
`[N-]=[N+]=NC(c1cn(C2CC(O)C(CO)O2)c(=O)[nH]c1=O)C(Cl)Br` (configuration not stated): the TGI in the experiment with DLD-1 colon, in the experiment on NCI-H522 lung, in the experiment on EKVX NSCLC, in the experiment with LXFL 529 NSCLC, in the experiment with RPMI-8226 leukemia and with M19-MEL melanoma was more than 100 µM each time. For the same compound, the TGI with DMS 114 small cell lung is more than 100 µM.
Consider `CC(C)N(C(=O)c1cccc(C(=O)N(C(C)C)C(C)C)c1)C(C)C`, for which the TGI in the experiment with DLD-1 colon, in the experiment on HOP-62 NSCLC, in the experiment on NCI-H522 lung, in the experiment with SF-268 CNS, in the experiment on EKVX NSCLC and with LXFL 529 NSCLC was more than 100 µM in each case. In addition, the TGI was more than 100 µM in the experiment on OVCAR-5 ovarian; 67.1 µM in the experiment with RPMI-8226 leukemia; more than 100 µM in the experiment with M19-MEL melanoma; more than 100 µM in the experiment with M14 melanoma; more than 100 µM in the experiment on DMS 114 small cell lung.
Take `C=CC(=O)N1C/C(=C\c2ccc(Cl)c(Cl)c2)C(=O)/C(=C/c2ccc(Cl)c(Cl)c2)C1`: the TGI in the experiment with DLD-1 colon came to 0.154 µM; with HOP-62 NSCLC, 0.607 µM; in the experiment on NCI-H522 lung, 0.302 µM; with SF-268 CNS, 0.298 µM; with LXFL 529 NSCLC it was 0.345 µM; in the experiment on OVCAR-5 ovarian it was 1.02 µM. Besides, the TGI with RPMI-8226 leukemia turned out to be 0.0983 µM; in the experiment with M19-MEL melanoma, 0.4 µM; in the experiment with M14 melanoma it was 0.702 µM; in the experiment with DMS 114 small cell lung it was 0.309 µM.

The values are drawn from PubChem BioAssay (NCI).
